Here are results for nine compounds from PubChem BioAssay (NCI).

Molecules are shown by their SMILES.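 96-well plates; 48 h exposure; 5 concentrations. Endpoints by linear interpolation between flanking doses. Not reached: highest tested concentration assigned. Here, GI50 denotes the concentration required for 50% inhibition of growth. TGI marks complete inhibition of growth.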

Holding throughout (assay): NCI anticancer screen, dose series, 48 h
Test [1] relates to A498 renal.
The test system of test [2] is UACC-257 melanoma.
For test [3], the system named is CCRF-CEM leukemia.
Test [4] deals with TK-10 renal.
Test [5] relates to SF-268 CNS.
The subject of test [6] is HT29 colon.
For test [7], the system named is SW-620 colon.
Test [8] relates to MALME-3M melanoma.
In test [9] the test system is OVCAR-3 ovarian.
The subject of test [10] is SNB-75 CNS.

Regarding `COc1cc2c(c(OC)c1OC)-c1ccc(SC)c(=O)cc1[C@@H](NC(=O)c1ccc(Cl)cc1)CC2`, the TGI in test [1] was less than 0.01 µM; in test [2], greater than 100 µM; in test [3], greater than 100 µM; in test [4], greater than 100 µM; in test [5], greater than 100 µM; in test [6], 11.2 µM. Further, the TGI in test [7] was 41.3 µM; in test [8] it was 5.03 µM; in [9] it was 2.64 µM; in test [10], greater than 100 µM.
As to `CC(=O)Oc1ccc(/C=N/NC(N)=S)nc1`, the GI50 in test [1] is 4.88 µM; in test [2], 14.2 µM; in test [3] it was 2.58 µM; in test [4] it was 47.8 µM; in test [5], 1.91 µM; in test [6], 19 µM. Besides, the GI50 in test [7] is 5.59 µM; in [8] it was 4.96 µM; in test [9] it was 2.72 µM; in test [10], 11.7 µM. For the same compound, the TGI in test [1] is 58.9 µM; in test [2], 57.7 µM; in [3], 9.43 µM; in test [4] it was greater than 100 µM; in [5], 8.59 µM; in test [6], greater than 100 µM. Also, the TGI is greater than 100 µM in test [7], 43.5 µM in test [8], greater than 100 µM in test [9] and greater than 100 µM in test [10].
With `Cc1nc(-n2nc(-c3ccccc3)cc2-c2ccccc2)sc1C(/C=C/c1ccc([N+](=O)[O-])cc1)=N/NC(=O)c1ccncc1`, the TGI was greater than 100 µM in test [1]; greater than 100 µM in test [2]; greater than 100 µM in [3]; 82.9 µM in test [4]; greater than 100 µM in test [5]; greater than 100 µM in test [6]. The TGI in test [7] was greater than 100 µM; in test [8], greater than 100 µM; in [9] it was 42.5 µM; in test [10], greater than 100 µM.
Take `Cc1cc(Cl)ccc1Nc1nc(C(F)(F)F)ccc1C(=O)N1CCN(c2cccc(Cl)c2)CC1`: the GI50 in test [1] was 37.1 µM; in test [2], greater than 100 µM; in test [3], greater than 100 µM; in test [4] it was greater than 100 µM; in [5] it was greater than 100 µM; in test [6] it was 46.1 µM. Also, the GI50 was greater than 100 µM in [7], greater than 100 µM in test [8], 7.82 µM in test [9] and 1.11 µM in test [10]. The TGI in [1], in test [2], in test [3], in test [4], in [5] and in test [6] was greater than 100 µM throughout. For the same compound, the TGI in [7] is greater than 100 µM; in [8], greater than 100 µM; in test [9] it was greater than 100 µM; in [10], 87.5 µM.
Take `Oc1ccc(Cl)cc1Cc1cc(Cl)ccc1O`: the GI50 in test [1] was 1.98 µM; in test [2] it was 1.87 µM; in [3] it was 2.43 µM; in test [4], 3.65 µM; in test [5], 2.81 µM; in test [6] it was 3.55 µM. Also, the GI50 was 3.04 µM in test [7], 2.55 µM in test [8], 2.63 µM in test [9] and 4.09 µM in test [10]. In addition, the TGI in test [1] came to 9.84 µM; in [2] it was 5.39 µM; in test [3] it was 9.79 µM; in test [4], 11.3 µM; in test [5] it was 11.3 µM; in [6], 10.6 µM. Besides, the TGI in [7] stood at 12.4 µM; in [8], 6.35 µM; in test [9], 8.35 µM; in test [10], 24.2 µM.
Turning to `CCSC(SCC)=C1C(=O)N(c2ccccc2)N=C1C`, the TGI turned out to be 28.8 µM in test [1]; 18.5 µM in test [2]; 11 µM in test [3]; 22.2 µM in [4]; 29.1 µM in test [5]; 39.4 µM in test [6]. Besides, the TGI turned out to be 20.3 µM in [7], 28.3 µM in test [8], 20.2 µM in test [9] and 43.9 µM in test [10].
For `COc1cnc2cc(C(=O)O)c3ccccc3c2c1`, the TGI in [1], in [2], in [3], in test [4], in [5] and in test [6] was greater than 100 µM each time. For the same compound, the TGI in test [7], in test [8], in [9] and in [10] was greater than 100 µM each time.
On to `N[C@@H]1CCCC[C@@H]1N.O=P([O-])([O-])CN(CP(=O)([O-])[O-])CP(=O)([O-])[O-].[Pt+2]`, for which the GI50 in [1], in test [2], in test [3], in [4], in test [5] and in test [6] was greater than 100 µM each time. Further, the GI50 in test [7], in test [8], in test [9] and in test [10] was greater than 100 µM in each case. The TGI in test [1], in test [2], in test [3], in [4], in test [5] and in [6] was greater than 100 µM throughout. For the same compound, the TGI in [7], in test [8], in [9] and in test [10] was greater than 100 µM each time.
As to `O=S(=O)(c1ccc(O)c(C=Nc2ccc(Cl)cc2)c1)c1ccc(O)c(C=Nc2ccc(Cl)cc2)c1`, the TGI in [1], in test [2], in test [3], in test [4], in [5] and in [6] was greater than 100 µM throughout. Also, the TGI in test [7], in test [8], in [9] and in test [10] was greater than 100 µM throughout.
